For this assay, the target named is human SCTR (Homo sapiens, UniProt P47872). The experiment in a line: agonist-induced β-arr2-GFP translocation. The settings on record: for EC50: mean of at least three independent experiments in duplicates; for β-arrestin2-GFP agonism efficacy: % of wild-type secretin. Also noted: expressed in transfected cells; host or cells: U2OS (human osteosarcoma), stably co-transfected with β-arrestin2-GFP. Type of assay: cell-based. An excerpt:
U2OS-SCTR/β-arr2-GFP: human osteosarcoma cell line U2OS (purchased from ATCC/LGC Standards, Wesel, Germany) were stably transfected with plasmids encoding SCTR (Homo sapiens) and the fusion protein β-arrestin2-green fluorescent protein (GFP) (Rattus norvegicus-Aequorea victoria) (β-arr2-GFP).
To evaluate reactivity of human SCTR exposed to different ligand variants, intracellular translocation of a fusion protein of β-arrestin2 and green fluorescent protein was utilized. For evaluation of activation, receptor-mediated recruitment of cytoplasmic β-arr2-GFP was monitored through its translocation into condensed intracellular vesicles. The extent of translocation events was quantified by determining the increasing granularization of the intracellular fluorescence utilizing an automated high-throughput microscope in combination with computational algorithms to estimate potency (EC50) and efficacy, thus characterizing ligand-SCTR interaction. U2OS-SCTR/β-arr2-GFP cells were seeded in 96-well cell culture plates to 60–80% confluence. On the following day, preceding stimulation, cells were incubated for one hour in serum-free medium. Ligand variants were applied as serial dilutions in assay buffer C1. After preincubation, supernatant was discarded by tapping plates overhead repeatedly. For stimulation, 50 µL of ligand dilution was applied per well in duplicates and incubated for 20 min at 37 °C. Successively, cells were fixed by applying 4% buffered formaldehyde (Herbeta Arzneimittel, Berlin, Germany) for 10 min at room temperature and consecutively permeabilized for 10 min at room temperature with 0.1% TritonX-100 in PBS, containing DAPI (4′,6-Diamidin-2-phenylindol, SigmaAldrich, Deisenhofen, Germany, 1 µg/mL) to counterstain nuclei. Microscopic images were recorded by an IN Cell Analyzer 1000 (GE Healthcare, Reading, UK) with 20× magnification at 5 frames per well in a 96-well format. Image processing was performed with IN Cell Investigator software (GE Healthcare, Reading, UK), applying the provided granularity algorithm. The output of the analysis was indicated as vesicle area/cell and was utilized for calculation of concentration–response curves. Parameters derived from curve fitting included the concentration of half-maximal activity (EC50), and intrinsic activity. Intrinsic activity was normalized defining reaction to non-modified wild type secretin as the 100% curve maximum value.

Setting [1] is: Supplementary Tables S1 and S2, decimal comma, '-' not detectable (Figure 4).
The mark [2] stands for this setting: Supplementary Tables S1 and S2, U2OS-SCTR/β-arr2-GFP cells, 20 min at 37 °C, decimal comma, '-' not detectable (Figure 4), read-out: β-arrestin2-GFP agonism potency.

Like-named read-outs stand apart in the source and are kept apart here.

Sequence of human SCTR (P47872 23-440): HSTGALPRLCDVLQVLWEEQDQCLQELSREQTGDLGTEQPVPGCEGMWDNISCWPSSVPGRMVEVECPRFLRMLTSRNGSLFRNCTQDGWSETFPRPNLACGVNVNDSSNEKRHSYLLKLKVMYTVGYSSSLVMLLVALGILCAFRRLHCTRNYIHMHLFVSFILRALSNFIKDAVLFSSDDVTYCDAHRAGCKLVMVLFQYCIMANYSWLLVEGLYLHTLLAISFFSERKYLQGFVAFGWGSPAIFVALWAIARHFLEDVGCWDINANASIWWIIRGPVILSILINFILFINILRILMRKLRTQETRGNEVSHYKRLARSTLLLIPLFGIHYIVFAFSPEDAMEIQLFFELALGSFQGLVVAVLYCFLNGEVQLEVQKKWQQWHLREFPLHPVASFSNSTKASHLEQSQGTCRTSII

Regarding `CC(C)C[C@H](NC(=O)CNC(=O)[C@H](CCC(N)=O)NC(=O)[C@H](CC(C)C)NC(=O)[C@H](CC(C)C)NC(=O)[C@H](CCCNC(=N)N)NC(=O)[C@H](CCC(N)=O)NC(=O)[C@H](CC(C)C)NC(=O)[C@H](CCCNC(=N)N)NC(=O)[C@H](C)NC(=O)CNC(=O)[C@H](CCC(=O)O)NC(=O)[C@H](CCCNC(=N)N)NC(=O)[C@H](CC(C)C)NC(=O)[C@H](CCCNC(=N)N)NC(=O)[C@H](CO)NC(=O)[C@H](CC(C)C)NC(=O)[C@H](CCC(=O)O)NC(=O)[C@H](CO)NC(=O)[C@@H](NC(=O)[C@H](C)NC(=O)[C@@H](NC(=O)CNC(=O)[C@H](CC(=O)O)NC(=O)[C@H](CO)NC(=O)[C@@H](N)Cc1c[nH]cn1)[C@@H](C)O)[C@@H](C)O)C(=O)N[C@H](C(=O)O)C(C)C` [Peptide 7], where the note is “U2OS-SCTR/β-arr2-GFP cells, ligand 20 min at 37 °C, vesicle area/cell by automated microscopy, read-out: EC50, β-arr2-GFP translocation assay”, the EC50 was found to be 155 ± 30.8 nM. Further, the Emax (U2OS-SCTR/β-arr2-GFP cells, normalized to wild type secretin = 100% curve maximum, read-out: intrinsic activity (efficacy), β-arr2-GFP translocation assay) stood at 61.8 ± 4.9%.
With `CC(C)C[C@H](NC(=O)CNC(=O)[C@H](CCC(N)=O)NC(=O)[C@H](CC(C)C)NC(=O)[C@H](CC(C)C)NC(=O)[C@H](CCCNC(=N)N)NC(=O)[C@H](CCC(N)=O)NC(=O)[C@H](CC(C)C)NC(=O)[C@H](CCCNC(=N)N)NC(=O)[C@H](C)NC(=O)CNC(=O)[C@H](CCC(=O)O)NC(=O)[C@H](CCCCN)NC(=O)[C@H](CC(C)C)NC(=O)[C@H](CCCNC(=N)N)NC(=O)[C@H](CO)NC(=O)[C@H](CC(C)C)NC(=O)[C@H](CCC(=O)O)NC(=O)[C@H](CO)NC(=O)[C@@H](NC(=O)[C@H](Cc1ccccc1)NC(=O)[C@@H](NC(=O)CNC(=O)[C@H](CC(=O)O)NC(=O)[C@H](CO)NC(=O)[C@@H](N)Cc1c[nH]cn1)[C@@H](C)O)[C@@H](C)O)C(=O)N[C@H](C(=O)O)C(C)C` [Peptide 68], the β-arrestin2-GFP agonism efficacy under setting [1] is reported as 114,30 % Sec. For the same molecule, the EC50 under setting [2] is 9.53 nM.
In the same order, the values of `CC(C)C[C@H](NC(=O)CNC(=O)[C@H](CCC(N)=O)NC(=O)[C@H](CC(C)C)NC(=O)[C@H](CC(C)C)NC(=O)[C@H](CCCNC(=N)N)NC(=O)[C@H](CCC(N)=O)NC(=O)[C@H](CC(C)C)NC(=O)[C@H](CCCNC(=N)N)NC(=O)[C@H](C)NC(=O)CNC(=O)[C@H](CC(=O)O)NC(=O)[C@H](CCCNC(=N)N)NC(=O)[C@H](CC(C)C)NC(=O)[C@H](CCCNC(=N)N)NC(=O)[C@H](CO)NC(=O)[C@H](CC(C)C)NC(=O)[C@H](CCC(=O)O)NC(=O)[C@H](CO)NC(=O)[C@@H](NC(=O)[C@H](Cc1ccccc1)NC(=O)[C@@H](NC(=O)CNC(=O)[C@H](CC(=O)O)NC(=O)[C@H](CO)NC(=O)[C@@H](N)Cc1c[nH]cn1)[C@@H](C)O)[C@@H](C)O)C(=O)N[C@H](C(=O)O)C(C)C` [Peptide 69] are 111,23 % Sec and 4.52 nM.
Turning to `CC(C)C[C@H](NC(=O)CNC(=O)[C@H](CCC(N)=O)NC(=O)[C@H](CC(C)C)NC(=O)[C@H](CC(C)C)NC(=O)[C@H](CCCNC(=N)N)NC(=O)[C@H](CCC(N)=O)NC(=O)[C@H](CC(C)C)NC(=O)[C@H](CCCNC(=N)N)NC(=O)[C@H](CCC(=O)O)NC(=O)CNC(=O)[C@H](CCC(=O)O)NC(=O)[C@H](CCCNC(=N)N)NC(=O)[C@H](CC(C)C)NC(=O)[C@H](CCCNC(=N)N)NC(=O)[C@H](CO)NC(=O)[C@H](CC(C)C)NC(=O)[C@H](CCC(=O)O)NC(=O)[C@H](CO)NC(=O)[C@@H](NC(=O)[C@H](Cc1ccccc1)NC(=O)[C@@H](NC(=O)CNC(=O)[C@H](CC(=O)O)NC(=O)[C@H](CO)NC(=O)[C@@H](N)Cc1c[nH]cn1)[C@@H](C)O)[C@@H](C)O)C(=O)N[C@H](C(=O)O)C(C)C` [Peptide 70], the β-arrestin2-GFP agonism efficacy under setting [1] is recorded as 104,77 % Sec. For the same molecule, under setting [2], the EC50 was found to be 2.26 nM.

(Values after PMC8944975, “Secretin Receptor as a Target in Gastrointestinal Cancer: Expression Analysis and Ligand Development” (Biomedicines, 2022).)
